{
  "source": "patent US9180107B2",
  "about": "(NANOPHARMACEUTICALS LLC, priority 2009, dated 2015)",
  "key": {"[1]": {"system": "Human adenoid cystic carcinoma TGS112T cells", "experiment": "[3H]-thymidine incorporation", "format": "cell-based", "conditions": "10^−7 M, 24 h", "description": "TGS112T cells were seeded in 24-well trays and exposed to 10% hormone-depleted FBS-supplemented medium for 2 d, then treated with 0.25% hormone-depleted FBS-supplemented medium prior to starting the experiments. Aliquots of cells were treated with T4, tetrac or nano-tetrac as indicated, as well as 1 μCi [^3H]-thymidine (final concentration, 13 nM) for 24 h. Cells were then washed twice with cold PBS. TCA (5%, 1 mL) was added and the plate was held at 4° C. for 30 min. The precipitate was washed twice with cold ethanol; 2% SDS (1 mL) was added to each well and the TCA-precipitable radioactivity was quantitated in a liquid scintillation counter.\n(§1) Human adenoid cystic carcinoma TGS112T cells were cultured in medium that contained 0.25% hormone-stripped serum for 2 d and then treated with 10^−7 M tetrac or nano-tetrac for 30 min prior institution of 10^−7 M T4 treatment for 24 h. Nuclear proteins were separated by SDS-PAGE followed by western blot analysis with proliferating-cell nuclear antigen (PCNA) antibody. Thyroid hormone-induced PCNA accumulation was inhibited by tetrac. (See FIG. 6A). […] (See FIG. 6A). Inhibition of thyroid hormone-induced proliferation was confirmed by inhibition by tetrac and nano-tetrac of thyroid hormone-induced accumulation and [^3H]-thymidine incorporation. (See FIG. 6B). […] (See FIG. 6B). […] The effect of nano-tetrac and tetrac on cell proliferation was examined by counting TGS112T cells which were treated daily with 10^−6 M tetrac or 10^−6 M nano-tetrac. […] (See FIG. 6C)."}, "[2]": {"system": "Human adenoid cystic carcinoma TGS112T cells", "experiment": "PCNA western blot (thyroid hormone-induced proliferation)", "format": "cell-based", "conditions": "10^−7 M, 24 h", "text": "The techniques have been described in a number of publications. (See Davis et al., 2006. Cancer Res. 66:7270-7275; Lin et al., 2007. Steroids. 72:180-187; Lin et al., 2008. Carcinogenesis. 29:62-69; and Davis et al., 2004. Circ Res. 94:1500-1506, each of which is herein incorporated by reference in its entirety). Nucleoproteins were separated on discontinuous SDS-PAGE (9% gels) and the proteins transferred by electroblotting to nitrocellulose membranes (Millipore, Bedford, Mass.). After blocking with 5% milk in Tris-buffered saline containing 0.1% Tween, the membranes were incubated with selected primary antibodies overnight. The secondary antibodies were either goat anti-rabbit IgG (1:1000, Dako, Carpenteria, Calif.) or rabbit anti-mouse IgG (1:1000, Dako), depending upon the origin of the primary antibody. Immunoreactive proteins were then detected by chemiluminescence.\nas §1"}},
  "data": [
    {"molecule": "N[C@@H](Cc1cc(I)c(Oc2cc(I)c(O)c(I)c2)c(I)c1)C(=O)O", "note": "[T4, L-thyroxine, reference compound]", "values": [
      {"measurement": "effect of agent alone on thymidine incorporation", "setting": "[1]", "result": "increased thymidine incorporation"},
      {"measurement": "Proliferation of TGS112T cells (agent alone)", "setting": "[2]", "result": "stimulated"}
    ]}
  ]
}
